Data published in ChEMBL document CHEMBL1201862, “PubChem BioAssay data set” (2004).
Calls of active or inactive are those of the source.

Tests used:
[1] = target: T1, Type-1 angiotensin II receptor (Homo sapiens, UniProt P30556); assay: AT1 receptor agonists, dose response, selectivity assay for APJ receptor agonist project, cell-based, uHTS hits (AID 488865); type: functional;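 note: beta-arrestin recruitment to AT1 measured by enzyme fragment complementation luminescence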
T1 sequence (P30556 whole entry): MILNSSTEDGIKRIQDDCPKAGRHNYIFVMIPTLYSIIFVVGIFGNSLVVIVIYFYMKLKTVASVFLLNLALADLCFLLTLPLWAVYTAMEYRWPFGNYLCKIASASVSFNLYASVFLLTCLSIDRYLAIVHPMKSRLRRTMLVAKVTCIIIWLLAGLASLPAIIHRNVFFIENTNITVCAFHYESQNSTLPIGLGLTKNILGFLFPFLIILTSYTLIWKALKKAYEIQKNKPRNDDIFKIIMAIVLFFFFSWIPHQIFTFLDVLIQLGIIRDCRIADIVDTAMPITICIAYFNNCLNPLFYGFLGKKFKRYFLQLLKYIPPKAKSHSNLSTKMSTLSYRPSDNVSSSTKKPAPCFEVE

[2] = target: T2, Heat shock factor protein 1 (Mus musculus, UniProt P38532); assay: HSF1 potentiators in luciferase reporter cells, confirmation, cell-based, NIH3T3, luminescence, dose retest (AID 435004); type: functional;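 note: stress induced by proteasome inhibitor MG132 added 30 min after compound; luciferase reporter driven by HSF1 response element in NIH3T3 cells; actives raise luminescence as potentiators of the MG132 stress response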
T2 sequence (P38532 whole entry): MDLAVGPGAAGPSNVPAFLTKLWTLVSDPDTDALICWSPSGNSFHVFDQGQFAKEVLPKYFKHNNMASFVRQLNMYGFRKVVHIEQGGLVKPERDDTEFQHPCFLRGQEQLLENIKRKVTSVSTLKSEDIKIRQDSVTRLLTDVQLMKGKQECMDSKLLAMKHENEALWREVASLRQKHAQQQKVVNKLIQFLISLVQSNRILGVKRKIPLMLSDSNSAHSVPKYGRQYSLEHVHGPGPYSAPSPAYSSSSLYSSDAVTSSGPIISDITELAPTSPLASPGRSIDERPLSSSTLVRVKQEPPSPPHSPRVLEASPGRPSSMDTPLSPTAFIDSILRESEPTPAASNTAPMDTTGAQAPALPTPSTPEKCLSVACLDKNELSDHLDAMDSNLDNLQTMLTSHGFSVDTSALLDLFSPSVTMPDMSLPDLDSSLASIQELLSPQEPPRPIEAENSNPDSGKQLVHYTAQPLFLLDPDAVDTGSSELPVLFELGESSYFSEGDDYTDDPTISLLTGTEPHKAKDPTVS

[3] = cytotoxicity in HEK-293T cells, dose response, cytotoxicity control for BCR NF-kB inhibitor project, luminescence, B-cell screen hits (AID 489021); type: functional, cell-based;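 note: HEK-293T cells carrying an NF-kB luciferase reporter; cells exposed to compound for about 14 hours before viability readout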
Bcl-2-like protein 10 = Bcl-2-like protein 10 (Homo sapiens, UniProt Q9HD36); assay: displacers of TR3 peptide from Bcl-B, primary screen, selectivity assay for Bfl-1 inhibitor project, biochemical, fluorescence polarization, FITC-TR3 peptide (AID 748);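 note: fluorescence polarization from a fluorescein-labelled TR3 peptide binding purified Bcl-B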
Chain of Bcl-2-like protein 10 (Q9HD36 whole entry): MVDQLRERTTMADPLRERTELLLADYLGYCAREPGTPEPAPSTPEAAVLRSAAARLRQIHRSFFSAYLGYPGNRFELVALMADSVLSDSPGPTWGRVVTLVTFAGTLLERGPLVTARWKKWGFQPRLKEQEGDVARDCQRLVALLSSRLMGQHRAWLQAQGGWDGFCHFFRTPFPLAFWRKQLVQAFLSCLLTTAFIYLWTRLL

[4] = target: Lysosomal acid glucosylceramidase (Homo sapiens, UniProt P04062); assay: Dose response cell-based high throughput screening assay to identify enhancers of beta-glucosidase activity. [Related pubchem assays: 784 ]; type: functional
Chain of Lysosomal acid glucosylceramidase (P04062 whole entry): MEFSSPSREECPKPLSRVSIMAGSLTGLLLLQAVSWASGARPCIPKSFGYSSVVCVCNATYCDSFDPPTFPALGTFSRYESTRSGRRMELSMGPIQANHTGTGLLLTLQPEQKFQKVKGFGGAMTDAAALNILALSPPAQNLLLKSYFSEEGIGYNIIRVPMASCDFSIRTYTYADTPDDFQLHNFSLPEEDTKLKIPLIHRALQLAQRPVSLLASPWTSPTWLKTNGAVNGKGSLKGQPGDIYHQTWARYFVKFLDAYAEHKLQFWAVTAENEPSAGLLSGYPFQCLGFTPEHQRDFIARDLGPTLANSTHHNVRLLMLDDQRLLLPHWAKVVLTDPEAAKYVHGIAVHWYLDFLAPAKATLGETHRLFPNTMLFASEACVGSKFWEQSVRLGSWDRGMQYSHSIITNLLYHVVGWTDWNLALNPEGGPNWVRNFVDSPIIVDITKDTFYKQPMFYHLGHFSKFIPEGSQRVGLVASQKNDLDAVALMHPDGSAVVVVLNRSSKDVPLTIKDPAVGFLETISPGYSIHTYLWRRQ

[5] = target: T3, Alkaline phosphatase, tissue-nonspecific isozyme (Homo sapiens, UniProt P05186); assay: TNAP enzyme inhibition by screening hits, dose response, selectivity assay for mouse IAP inhibitor project, biochemical, human TNAP, uHTS hits (AID 488906); type: functional
T3 sequence (P05186 whole entry): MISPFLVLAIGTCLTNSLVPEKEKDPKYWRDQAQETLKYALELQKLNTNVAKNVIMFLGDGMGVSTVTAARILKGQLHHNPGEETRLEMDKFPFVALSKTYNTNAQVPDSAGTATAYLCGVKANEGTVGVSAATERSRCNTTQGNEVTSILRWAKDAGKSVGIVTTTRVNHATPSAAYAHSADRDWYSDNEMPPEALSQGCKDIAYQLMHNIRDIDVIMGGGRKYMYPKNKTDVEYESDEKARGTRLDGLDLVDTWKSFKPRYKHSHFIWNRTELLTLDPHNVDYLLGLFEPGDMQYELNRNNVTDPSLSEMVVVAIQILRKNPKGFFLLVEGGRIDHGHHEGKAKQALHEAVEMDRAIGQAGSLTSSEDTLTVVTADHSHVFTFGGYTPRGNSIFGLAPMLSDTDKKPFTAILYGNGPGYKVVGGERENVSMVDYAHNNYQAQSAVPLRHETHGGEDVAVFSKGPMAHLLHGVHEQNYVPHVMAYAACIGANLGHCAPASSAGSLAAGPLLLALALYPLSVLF

[6] = target: Intestinal-type alkaline phosphatase (Mus musculus, UniProt P24822); assay: PubChem AID 488785; type: functional
Chain of Intestinal-type alkaline phosphatase (Mus musculus, UniProt P24822) (P24822 whole entry): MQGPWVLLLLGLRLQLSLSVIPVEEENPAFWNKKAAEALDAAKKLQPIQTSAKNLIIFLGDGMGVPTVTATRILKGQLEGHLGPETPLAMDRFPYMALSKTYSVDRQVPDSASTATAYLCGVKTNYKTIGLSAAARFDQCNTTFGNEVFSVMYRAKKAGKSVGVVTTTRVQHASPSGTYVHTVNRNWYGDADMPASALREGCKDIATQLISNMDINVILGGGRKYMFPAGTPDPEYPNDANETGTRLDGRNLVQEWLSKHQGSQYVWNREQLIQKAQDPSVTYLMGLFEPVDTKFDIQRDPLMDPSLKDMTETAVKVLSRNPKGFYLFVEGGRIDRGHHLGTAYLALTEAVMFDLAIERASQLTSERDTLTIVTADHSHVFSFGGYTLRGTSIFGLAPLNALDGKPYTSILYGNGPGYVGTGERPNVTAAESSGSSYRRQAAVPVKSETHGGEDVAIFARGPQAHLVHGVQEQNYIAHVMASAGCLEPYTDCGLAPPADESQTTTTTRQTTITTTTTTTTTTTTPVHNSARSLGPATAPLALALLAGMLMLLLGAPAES

[7] = target: FAD-linked sulfhydryl oxidase ALR (Homo sapiens, UniProt P55789); assay: inhibitors of human ALR sulfhydryl oxidase, dose response, biochemical, H2O2 detection, luminescence, cherry-pick (AID 493248)
Chain of FAD-linked sulfhydryl oxidase ALR (P55789 whole entry): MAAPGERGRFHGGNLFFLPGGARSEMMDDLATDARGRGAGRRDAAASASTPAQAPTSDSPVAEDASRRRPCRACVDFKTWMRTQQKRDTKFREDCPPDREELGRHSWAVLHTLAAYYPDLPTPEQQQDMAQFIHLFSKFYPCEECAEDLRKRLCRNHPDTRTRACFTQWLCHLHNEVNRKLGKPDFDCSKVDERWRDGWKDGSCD

[8] = target: Intestinal-type alkaline phosphatase (Homo sapiens, UniProt P09923); assay: activation of human intestinal alkaline phosphatase – biochemical, dose response (AID 488873); type: functional
Chain of Intestinal-type alkaline phosphatase (Homo sapiens, UniProt P09923) (P09923 whole entry): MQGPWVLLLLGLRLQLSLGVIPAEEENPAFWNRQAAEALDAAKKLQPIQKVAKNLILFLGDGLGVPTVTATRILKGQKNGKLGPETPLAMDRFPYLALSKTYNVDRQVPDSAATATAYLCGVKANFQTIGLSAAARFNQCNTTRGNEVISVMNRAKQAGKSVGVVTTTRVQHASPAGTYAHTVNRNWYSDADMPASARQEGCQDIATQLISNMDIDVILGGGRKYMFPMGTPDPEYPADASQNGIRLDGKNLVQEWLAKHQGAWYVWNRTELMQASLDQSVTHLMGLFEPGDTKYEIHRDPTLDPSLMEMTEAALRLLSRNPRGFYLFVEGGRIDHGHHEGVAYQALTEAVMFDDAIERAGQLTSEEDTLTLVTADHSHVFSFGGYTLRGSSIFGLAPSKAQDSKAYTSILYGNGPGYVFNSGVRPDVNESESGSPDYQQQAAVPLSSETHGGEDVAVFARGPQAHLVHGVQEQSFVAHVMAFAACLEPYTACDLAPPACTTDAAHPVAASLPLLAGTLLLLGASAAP

[9] = target: T4, Sphingosine 1-phosphate receptor 4 (Homo sapiens, UniProt O95977); assay: Late-stage fluorescence dose response cell-based assay to identify agonists of the Sphingosine 1-Phosphate Receptor 4 (S1P4): purchased compounds EC50. [Related pubchem assays (depositor defined):AID1509, AID1523, AID1563, AID1686, AID1701, AID1801]; type: functional
T4 sequence (O95977 whole entry): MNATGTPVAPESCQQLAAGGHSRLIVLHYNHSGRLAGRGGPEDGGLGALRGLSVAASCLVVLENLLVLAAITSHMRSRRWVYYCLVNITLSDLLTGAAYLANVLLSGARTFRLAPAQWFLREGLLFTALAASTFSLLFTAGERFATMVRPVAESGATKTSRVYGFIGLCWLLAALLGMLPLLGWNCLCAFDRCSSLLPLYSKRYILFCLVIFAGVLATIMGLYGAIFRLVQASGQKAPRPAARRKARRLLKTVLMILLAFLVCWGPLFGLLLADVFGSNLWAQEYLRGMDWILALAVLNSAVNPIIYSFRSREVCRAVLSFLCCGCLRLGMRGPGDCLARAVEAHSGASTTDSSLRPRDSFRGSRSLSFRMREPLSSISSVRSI

cells = type: functional, cell-based
Streptococcus = assay: Group A Streptococcus viability loss, dose response, counter-screen for streptokinase expression inhibitor project, luminescence, BacTiterGlo (AID 1915); type: functional, organism-based;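 note: potency for reduction of bacterial viability or growth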
[10] = inhibitors of SNCA 5'UTR-driven translation, confirmation, luminescence, H4 neuroglioblastoma cells, dose confirmation (AID 2454); type: functional, cell-based;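 note: H4 neuroglioblastoma cells carrying an alpha-synuclein 5'UTR luciferase reporter; potency for inhibition of the luciferase signal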
INS1 = assay: beta cell apoptosis inhibitors, cytokine rescue, dose response, luminescence, retest (AID 449756); type: functional, cell-based; conditions: Rattus norvegicus;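 note: cell death triggered by IL-1 beta plus TNF-alpha plus IFN-gamma mixture; protective hits raise ATP signal compared with cytokine alone wells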
[11] = target: T5, Kappa-type opioid receptor (Homo sapiens, UniProt P41145); type: functional
T5 sequence (P41145 whole entry): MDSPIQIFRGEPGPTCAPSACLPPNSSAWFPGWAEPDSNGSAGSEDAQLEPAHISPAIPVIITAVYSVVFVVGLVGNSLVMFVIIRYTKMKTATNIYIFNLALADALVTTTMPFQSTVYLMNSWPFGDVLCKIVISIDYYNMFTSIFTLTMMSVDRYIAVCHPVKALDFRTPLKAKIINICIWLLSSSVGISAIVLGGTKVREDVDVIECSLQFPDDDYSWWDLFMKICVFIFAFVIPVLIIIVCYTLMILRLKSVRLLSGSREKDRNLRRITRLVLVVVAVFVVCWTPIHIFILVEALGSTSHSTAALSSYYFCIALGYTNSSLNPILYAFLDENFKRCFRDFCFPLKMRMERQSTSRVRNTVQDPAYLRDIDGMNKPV

[12] = target: T5, Kappa-type opioid receptor; type: functional; remark: listed apart in the source
Beta-galactosidase = Beta-galactosidase (Escherichia coli, UniProt Q8VNN2); type: functional
Chain of Beta-galactosidase (Q8VNN2 whole entry): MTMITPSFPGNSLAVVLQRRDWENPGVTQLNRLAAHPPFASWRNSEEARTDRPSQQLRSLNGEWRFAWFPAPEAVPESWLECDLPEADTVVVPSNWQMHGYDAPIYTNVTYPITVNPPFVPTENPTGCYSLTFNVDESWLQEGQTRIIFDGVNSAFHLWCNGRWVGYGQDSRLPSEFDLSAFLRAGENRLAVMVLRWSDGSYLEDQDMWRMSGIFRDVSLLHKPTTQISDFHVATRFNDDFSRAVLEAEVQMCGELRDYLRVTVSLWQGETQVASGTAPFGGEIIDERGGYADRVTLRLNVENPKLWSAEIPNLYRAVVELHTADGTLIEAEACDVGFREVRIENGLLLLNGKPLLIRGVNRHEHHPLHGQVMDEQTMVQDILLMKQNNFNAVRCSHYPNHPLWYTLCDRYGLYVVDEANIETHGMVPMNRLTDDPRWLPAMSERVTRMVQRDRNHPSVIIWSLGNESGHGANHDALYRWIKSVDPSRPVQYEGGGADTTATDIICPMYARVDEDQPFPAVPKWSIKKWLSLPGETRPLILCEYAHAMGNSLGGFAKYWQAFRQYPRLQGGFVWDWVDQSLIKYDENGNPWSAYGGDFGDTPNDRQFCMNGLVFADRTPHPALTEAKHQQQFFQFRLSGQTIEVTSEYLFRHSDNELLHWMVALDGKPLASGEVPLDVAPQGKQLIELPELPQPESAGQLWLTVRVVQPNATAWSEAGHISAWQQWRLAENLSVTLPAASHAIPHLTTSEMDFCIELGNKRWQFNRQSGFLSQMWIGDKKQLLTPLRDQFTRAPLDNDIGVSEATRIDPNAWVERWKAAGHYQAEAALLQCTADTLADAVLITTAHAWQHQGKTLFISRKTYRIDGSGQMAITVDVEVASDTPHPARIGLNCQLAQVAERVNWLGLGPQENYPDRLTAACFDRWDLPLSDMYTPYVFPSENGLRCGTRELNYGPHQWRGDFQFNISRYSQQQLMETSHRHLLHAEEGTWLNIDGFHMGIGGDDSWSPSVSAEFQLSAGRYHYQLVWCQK

[13] = target: Heat shock protein HSP 90-alpha (Homo sapiens, UniProt P07900); type: functional, organism-based
[14] = inhibitors of SNCA 5'UTR-driven reporter translation, confirmation, H4 neuroglioma cells, luminescence (AID 1988); type: functional, cell-based
[15] = Luminescence Cell-Based Dose Response HTS to Identify Inhibitors of 5'UTR Stem-Loop Driven Prion Protein mRNA Translation in H4 Neuroglioblastoma Cells. [Related pubchem assays: 1827 (Project Summary), 1813 (Primary HTS)]; type: functional
[16] = inhibitors of firefly luciferase expression or activity, dose response, H4 neuroglioma cells, luminescence (AID 1990); type: functional, cell-based
Vero = assay: cells; type: functional; conditions: Chlorocebus sabaeus
[17] = system: Streptococcus sp. 'group A'; assay: growth inhibition of control SK(-) GAS strain, dose response, counter-screen for streptokinase expression inhibitor project, luminescence, kanamycin, BacTiterGlo, confirmation (AID 1900); type: functional, organism-based
[18] = luciferase reporter signal reduction – luminescence, H4-C neuroglioblastoma cells, dose response (AID 2458); type: functional, cell-based;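 note: H4 neuroglioblastoma cells stably carrying a luciferase reporter gene fusion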
Hexokinase = Hexokinase (Trypanosoma brucei, UniProt Q38C41); assay: Confirmation assay for inhibitors of Trypanosoma brucei hexokinase 1-Analogue-first series. [Related pubchem assays (depositor defined):AID1430, AID1632, AID2516, AID2560, AID2579, AID2600, AID449725, AID492951]; type: functional
Chain of Hexokinase (Q38C41 whole entry): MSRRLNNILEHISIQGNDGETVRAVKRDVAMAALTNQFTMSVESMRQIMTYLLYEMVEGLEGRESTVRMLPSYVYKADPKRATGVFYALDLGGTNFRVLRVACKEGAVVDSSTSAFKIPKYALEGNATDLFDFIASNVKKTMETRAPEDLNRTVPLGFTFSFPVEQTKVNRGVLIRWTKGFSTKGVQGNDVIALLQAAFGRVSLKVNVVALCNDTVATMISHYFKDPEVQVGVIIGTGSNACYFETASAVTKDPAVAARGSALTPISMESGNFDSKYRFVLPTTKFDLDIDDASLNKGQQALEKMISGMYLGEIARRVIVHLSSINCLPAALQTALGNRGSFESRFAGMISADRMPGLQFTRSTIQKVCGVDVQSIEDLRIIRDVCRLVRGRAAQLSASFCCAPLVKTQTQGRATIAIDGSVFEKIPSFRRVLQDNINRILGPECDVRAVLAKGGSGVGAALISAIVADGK

Hexokinase HKDC1 = target: T6, Hexokinase HKDC1 (Homo sapiens, UniProt Q2TB90); assay: HKDC1 hexokinase activators, dose response, biochemical, W721R variant (AID 504730); type: functional
T6 sequence (Q2TB90 whole entry): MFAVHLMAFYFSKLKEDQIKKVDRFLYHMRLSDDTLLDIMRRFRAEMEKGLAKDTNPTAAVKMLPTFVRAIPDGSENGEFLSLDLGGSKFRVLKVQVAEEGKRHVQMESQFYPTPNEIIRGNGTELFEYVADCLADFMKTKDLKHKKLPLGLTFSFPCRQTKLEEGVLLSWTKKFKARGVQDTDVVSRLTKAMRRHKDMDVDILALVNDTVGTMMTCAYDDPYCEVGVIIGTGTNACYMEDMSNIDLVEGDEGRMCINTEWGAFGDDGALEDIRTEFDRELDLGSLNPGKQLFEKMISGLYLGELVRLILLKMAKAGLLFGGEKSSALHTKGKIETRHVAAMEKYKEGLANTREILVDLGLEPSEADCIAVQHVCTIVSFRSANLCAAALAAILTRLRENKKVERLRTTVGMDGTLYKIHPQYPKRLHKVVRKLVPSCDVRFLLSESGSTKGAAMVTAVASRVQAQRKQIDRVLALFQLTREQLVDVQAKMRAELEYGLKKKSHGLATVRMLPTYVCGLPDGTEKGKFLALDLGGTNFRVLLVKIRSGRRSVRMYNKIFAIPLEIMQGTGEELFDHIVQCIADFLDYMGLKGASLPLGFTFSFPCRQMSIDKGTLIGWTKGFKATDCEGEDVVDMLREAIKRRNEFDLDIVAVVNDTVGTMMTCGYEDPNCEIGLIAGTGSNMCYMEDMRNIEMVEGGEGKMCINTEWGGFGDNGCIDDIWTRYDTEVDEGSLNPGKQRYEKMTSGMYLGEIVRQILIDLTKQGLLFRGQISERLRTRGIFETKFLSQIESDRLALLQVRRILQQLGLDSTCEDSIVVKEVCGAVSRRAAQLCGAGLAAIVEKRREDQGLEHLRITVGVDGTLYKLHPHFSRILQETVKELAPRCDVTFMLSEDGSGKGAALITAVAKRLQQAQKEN

## O=C(Cn1ncc2c3ccccc3nc-2c1O)Nc1ccc(CN2CCCCC2)cc1
[1]
  EC50: > 100 µM (inactive)

## COc1ccc(C(=O)n2nc(-c3ccc(Cl)cc3)nc2N)cc1OC
[2]
  EC50: > 260 µM (inconclusive)
[3]
  IC50: > 80 µM (inactive)

## Cc1ccc(OCCC(=O)OCC(=O)Nc2ccc(Cl)cn2)cc1
Bcl-2-like protein 10
  IC50: 72.8 µM (inactive)

## C/N=C1/SC(CC(=O)Nc2cccc(C(F)(F)F)c2)C(=O)N1C (stereo unspecified)
[4]
  EC50: > 50 µM (not active)

## Cc1ccc(C)c(S(=O)(=O)Nc2ccc(O)c(Sc3nnc[nH]3)c2)c1
[5]
  IC50: 5.46 µM (active)
[6]
  IC50: 2.75 µM (active)
[7]
  AC50: 2.05 µM (active)
[8]
  EC50: 11.9 µM (active)

## Cc1ccc(OC(C)C(=O)Nc2cc(Cl)ccc2Cl)c([N+](=O)[O-])n1 (stereo unspecified)
[9]
  EC50: > 50 µM (inactive)

## COc1ccc(-c2nn(C)c(=O)c3ccccc23)cc1NS(C)(=O)=O
[3]
  IC50: > 80 µM (inactive)

## COc1ccc(N=Nc2ccc(O)c3ncccc23)cc1
cells
  EC50: 1.65 µM (active)
Streptococcus
  EC50: 2.5 µM (active)
[10]
  EC50: > 12 µM (not active)
INS1
  AC50: 1.16 µM (active)
[11]
  IC50: 5.64 µM (active)
[12]
  IC50: > 32 µM
Beta-galactosidase
  EC50: 24.6 µM (active)
[13]
  AC50: 3.34 µM (active)
[14]
  EC50: < 0.1 µM (active)
[15]
  EC50: 6.71 µM (active)
[16]
  EC50: 8.21 µM (active)
Vero
  CC50: 6.3 µM (active)
[17]
  EC50: 0.191 µM (active)
[18]
  EC50: > 12 µM (not active)

## CCCc1cc(O)nc(SCC(=O)CSc2nc(O)cc(CCC)n2)n1
[4]
  EC50: > 50 µM (not active)

## O=Cc1cn(Cc2ccc([N+](=O)[O-])cc2)c2ccccc12
cells
  EC50: 0.466 µM (active)
[10]
  EC50: 1.02 µM (active)
[14]
  EC50: 0.233 µM (active)
[15]
  EC50: < 0.1 µM (active)
[16]
  EC50: 5.79 µM (active)
[18]
  EC50: 1.25 µM (active)

## CCc1ccc(C(=O)Nc2cc(Cl)ccc2C(=O)OC)cc1
Hexokinase
  IC50: > 25 µM (inactive)

## Cc1cc(Oc2ccc(C(C)(C)C)cc2)nc(N2CCOCC2)n1
Hexokinase HKDC1
  EC50: > 80 µM (inactive)

## O=c1c2cc(F)c(F)cc2sn1-c1ccccc1
Hexokinase
  IC50: 2.23 µM (active)

## Cc1cc(C)cc(OCCOc2ccc(C)nc2[N+](=O)[O-])c1
[9]
  EC50: > 50 µM (inactive)
